We go through 17 compounds from patent publication US8101596B2, “Loxapine analogs and methods of use thereof” (Hypnion Inc., priority 2004, dated 2012).

pKi: −log10 of the molar value.

The test system of one series is male Wistar rats. Put plainly: Sleep-wakefulness monitoring (SCORE-2000) in rats. The format is in vivo, rat. The settings on record: CT-18. The procedure: Food and water were available ad libitum.
Treatments were administered orally as a bolus.
A parallel group study design was employed.

In series [1] the test system is monkey cryopreserved hepatocytes. The series is described as follows: Metabolism in monkey cryopreserved hepatocytes. The settings on record: primate hepatocytes, 1 μM, in % (unit assumed). Format: in vitro ADME. As for the experimental part:
(§1) Metabolism of test articles in monkey and human cryopreserved hepatocytes was assayed as follows:
(§2) Sample is diluted with DMSO, to prepare 100 μM and 10 μM stocks. 0.1% formic acid in acetonitrile is prepared by the addition of 1 mL formic acid per 1 L acetonitrile (store RT for 3 months). 10 minute, 60 and 120 minute 96 well quenching plates are prepared with 150 μL acetonitrile+0.1% formic acid in each well. Store on ice or refrigerated.
(§3) Next, hepatocytes are thawed and 100 μL of cell suspension is placed into a microfuge tube with 100 μL 0.4% Trypan Blue solution and gently mix by inversion. A small amount of the stained cell suspension (approximately 15 μL) is placed into a clean hemacytometer with a coverslip. The hemacytometer is placed onto the stage of the microscope and the focus and power are adjusted until a single counting square fills the field. The number of cells in the four outside corner subdivided squares of the hemacytometer are counted. Viable cells are opalescent, round, and pale with a darker outline. Non-viable cells are dark, opaque blue.
(§4) 198 μL of hepatocytes are transferred to relevant wells on dosing plate.
(§5) Plates are preincubated for at least 15 min. Reactions are started 2 μL of appropriate test compound dilution from dosing plate. […]

Series [2] has as its system human cryopreserved hepatocytes. The series is described as follows: Metabolism in human cryopreserved hepatocytes. The format is in vitro ADME. The settings on record: 1 μM, in % (unit assumed). As for the experimental part: as §1, §2, §3, §4, §5
For the next series, the target named is T1, H1 histamine receptor (Bos taurus, UniProt P30546).
T1 construct: the receptors were obtained from bovine cerebellar membrane tissue; from tissue; host or cells: bovine cerebellar membranes
The settings on record: reference compounds; read-out: Ki of reference compounds in H1 binding assay (unit inferred); cited from earlier work.

In series [3] the target is T2, human recombinant M1 expressed in CHO cells (Homo sapiens, UniProt P11229).
T2 construct: purchased PerkinElmer, Inc., Wellesley, Mass; host or cells: CHO cells
T2 sequence (P11229 1-460): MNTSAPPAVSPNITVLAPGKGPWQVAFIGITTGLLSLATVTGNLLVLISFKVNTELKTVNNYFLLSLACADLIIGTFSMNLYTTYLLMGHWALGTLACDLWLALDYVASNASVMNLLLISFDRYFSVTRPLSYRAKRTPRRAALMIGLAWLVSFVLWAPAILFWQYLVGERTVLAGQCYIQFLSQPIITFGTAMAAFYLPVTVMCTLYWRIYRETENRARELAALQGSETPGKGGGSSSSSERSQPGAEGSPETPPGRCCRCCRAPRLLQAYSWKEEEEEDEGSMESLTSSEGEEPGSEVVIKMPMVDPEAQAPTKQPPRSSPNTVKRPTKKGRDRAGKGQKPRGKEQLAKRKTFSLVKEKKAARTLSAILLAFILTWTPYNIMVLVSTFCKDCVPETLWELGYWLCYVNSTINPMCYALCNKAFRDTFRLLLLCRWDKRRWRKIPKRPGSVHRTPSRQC
Put plainly: M1 muscarinic receptor binding assay.

Series [4] deals with T3, human recombinant M2 expressed in CHO cells (Homo sapiens, UniProt P08172).
T3 construct: purchased PerkinElmer, Inc., Wellesley, Mass; host or cells: CHO cells
T3 sequence (P08172 1-466): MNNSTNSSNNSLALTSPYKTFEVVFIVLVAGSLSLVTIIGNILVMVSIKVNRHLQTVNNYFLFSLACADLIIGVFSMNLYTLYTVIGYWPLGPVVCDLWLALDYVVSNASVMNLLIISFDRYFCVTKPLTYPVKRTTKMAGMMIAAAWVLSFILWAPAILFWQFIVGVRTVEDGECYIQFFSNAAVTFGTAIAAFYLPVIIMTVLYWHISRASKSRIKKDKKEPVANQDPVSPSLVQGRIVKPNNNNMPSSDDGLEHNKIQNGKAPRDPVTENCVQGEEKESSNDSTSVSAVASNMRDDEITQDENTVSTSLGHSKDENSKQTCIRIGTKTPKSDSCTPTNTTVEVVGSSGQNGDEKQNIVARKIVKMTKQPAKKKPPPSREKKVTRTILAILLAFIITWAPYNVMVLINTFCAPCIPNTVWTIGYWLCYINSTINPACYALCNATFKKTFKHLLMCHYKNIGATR
The series is described as follows: M2 muscarinic receptor binding assay.

The target in series [5] is T4, human recombinant M3 expressed in CHO cells (Homo sapiens, UniProt P20309).
T4 construct: purchased PerkinElmer, Inc., Wellesley, Mass; host or cells: CHO cells
The series is described as follows: M3 muscarinic receptor binding assay.

T4 sequence (P20309 whole entry): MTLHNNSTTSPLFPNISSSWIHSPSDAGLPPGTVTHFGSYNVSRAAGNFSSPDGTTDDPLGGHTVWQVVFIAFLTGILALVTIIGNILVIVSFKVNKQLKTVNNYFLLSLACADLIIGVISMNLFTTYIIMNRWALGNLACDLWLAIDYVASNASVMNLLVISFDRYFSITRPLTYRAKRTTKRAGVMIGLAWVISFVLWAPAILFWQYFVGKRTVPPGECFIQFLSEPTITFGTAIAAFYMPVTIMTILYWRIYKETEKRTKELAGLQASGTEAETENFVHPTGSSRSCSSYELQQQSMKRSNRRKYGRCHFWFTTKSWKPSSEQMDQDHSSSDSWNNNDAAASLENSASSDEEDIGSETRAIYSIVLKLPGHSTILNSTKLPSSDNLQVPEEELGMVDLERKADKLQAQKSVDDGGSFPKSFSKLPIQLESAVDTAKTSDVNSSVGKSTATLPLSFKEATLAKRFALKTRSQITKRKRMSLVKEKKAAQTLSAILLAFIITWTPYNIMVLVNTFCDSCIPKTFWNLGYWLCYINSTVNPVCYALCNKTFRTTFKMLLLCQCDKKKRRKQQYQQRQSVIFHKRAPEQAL
T1 sequence (P30546 whole entry): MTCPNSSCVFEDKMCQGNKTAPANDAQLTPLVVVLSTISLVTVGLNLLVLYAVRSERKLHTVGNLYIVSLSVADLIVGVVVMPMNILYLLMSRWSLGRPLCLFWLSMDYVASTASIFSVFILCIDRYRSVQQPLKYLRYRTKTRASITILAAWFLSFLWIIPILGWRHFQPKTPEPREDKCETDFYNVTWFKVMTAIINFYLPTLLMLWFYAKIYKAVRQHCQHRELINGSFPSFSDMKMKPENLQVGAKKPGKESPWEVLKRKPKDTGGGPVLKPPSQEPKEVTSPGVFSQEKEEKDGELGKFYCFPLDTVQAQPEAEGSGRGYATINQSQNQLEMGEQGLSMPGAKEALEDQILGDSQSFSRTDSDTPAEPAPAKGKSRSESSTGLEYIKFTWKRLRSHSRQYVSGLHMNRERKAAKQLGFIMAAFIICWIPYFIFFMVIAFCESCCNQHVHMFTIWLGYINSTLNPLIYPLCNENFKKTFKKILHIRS

For `CC(C)(CN1CCN(C2=Nc3ccccc3Oc3ccccc32)CC1)C(=O)O` [Compound 1], the “LUSB (longest uninterrupted sleep bout)” value in the series with male Wistar rats (1 mg/kg oral) amounted to 6.0 ± 2.3 min; in the series with male Wistar rats (3 mg/kg oral), 18.8 ± 3.0 min; with male Wistar rats (10 mg/kg oral) it was 19.7 ± 6.7 min.

Take `CC(C)(CN1CCN(C2=Nc3ccccc3Oc3ccccc32)CC1)C(=O)NS(C)(=O)=O` [Compound 40]: the “LUSB (longest uninterrupted sleep bout)” value worked out at 7.6 ± 4.2 min with male Wistar rats (10 mg/kg oral) and 16.4 ± 2.9 min in the series on male Wistar rats (30 mg/kg oral).

Regarding `CC(C)(CN1CCN(C2=Nc3cc(Br)ccc3Oc3ccccc32)CC1)C(=O)O` [Compound 17], the “LUSB (longest uninterrupted sleep bout)” value in the series with male Wistar rats (10 mg/kg oral) worked out at 5.0 ± 2.0 min.

For the compound `CC(C)(CN1CCN(C2=Nc3ccccc3Oc3ccc(Br)cc32)CC1)C(=O)O` [Compound 8], the “LUSB (longest uninterrupted sleep bout)” value in the series on male Wistar rats (10 mg/kg oral) was 16.7 ± 3.0 min.

In the case of `Cc1ccc2c(c1)Oc1ccccc1N=C2N1CCN(CC(C)(C)C(=O)O)CC1` [Compound 46], the “LUSB (longest uninterrupted sleep bout)” value came to 4.1 ± 1.6 min in the series with male Wistar rats (1 mg/kg oral), 17 ± 4.4 min in the series with male Wistar rats (3 mg/kg oral) and 11.1 ± 3.7 min in the series with male Wistar rats (10 mg/kg oral).

As for `COc1ccc2c(c1)C(N1CCN(CC(C)(C)C(=O)O)CC1)=Nc1ccccc1O2` [Compound 12], the “LUSB (longest uninterrupted sleep bout)” value with male Wistar rats (1 mg/kg oral) came to 7.7 ± 3.2 min; in the series with male Wistar rats (3 mg/kg oral) it was 8.3 ± 3.0 min; with male Wistar rats (10 mg/kg oral), 18.1 ± 2.1 min.

Consider `Cc1ccc2c(c1)N=C(N1CCN(CC(C)(C)C(=O)O)CC1)c1cc(C)ccc1O2` [Compound 20], for which the “LUSB (longest uninterrupted sleep bout)” value with male Wistar rats (10 mg/kg oral) was 4.7 ± 2.3 min.

`COc1ccc2c(c1)N=C(N1CCN(CC(C)(C)C(=O)O)CC1)c1ccc(OC)cc1O2` [Compound 42]: the “LUSB (longest uninterrupted sleep bout)” value in the series with male Wistar rats (10 mg/kg oral) was determined as 4.8 ± 2.7 min.

`CC(C)(CN1CCN(C2=Nc3ccccc3Oc3ccc(Cl)cc32)CC1)C(=O)O` [Compound 5]: the “LUSB (longest uninterrupted sleep bout)” value in the series on male Wistar rats (3 mg/kg oral) was determined as 13.5 ± 4.0 min; with male Wistar rats (10 mg/kg oral) it was 8.7 ± 3.3 min. In addition, the “remaining 120 minutes after treatment” value in series [1] worked out at 75.105; in series [2], 90.405.

On to `COc1ccc2c(c1)C(N1CCN(CC(C)(C)C(=O)O)CC1)=Nc1cc(Br)ccc1O2` [Compound 51], for which the “LUSB (longest uninterrupted sleep bout)” value in the series on male Wistar rats (10 mg/kg oral) is 10.1 ± 3.6 min.

Consider `CN(C)CCCSC(=N)N` [dimaprit], for which the pKi on H1 histamine receptor is less than 3.96.

Turning to `Cc1ccc2c(c1)N=C(N1CCN(CC(C)(C)C(=O)O)CC1)c1ccccc1O2` [Compound 19], the “LUSB (longest uninterrupted sleep bout)” value turned out to be 18.6 ± 3.3 min in the series with male Wistar rats (3 mg/kg oral) and 11.7 ± 4.0 min in the series on male Wistar rats (10 mg/kg oral).

On to `Cc1ccc2c(c1)C(N1CCN(CC(C)(C)C(=O)O)CC1)=Nc1cc(Br)ccc1O2` [Compound 50], for which the “LUSB (longest uninterrupted sleep bout)” value with male Wistar rats (10 mg/kg oral) worked out at 3.4 ± 2.6 min.

Take `COc1ccc2c(c1)N=C(N1CCN(CC(C)(C)C(=O)O)CC1)c1cc(C)ccc1O2` [Compound 56]: the “LUSB (longest uninterrupted sleep bout)” value with male Wistar rats (10 mg/kg oral) amounted to 11.7 ± 2.3 min.

`CC(C)(CCN1CCN(C2=Nc3ccccc3Oc3ccc(Cl)cc32)CC1)C(=O)O` [Compound 6]: the pKi in series [3], in series [4] and in series [5] was less than 5.00 in each case.

Consider `COc1ccc2c(c1)C(N1CCN(CC(C)(C)C(=O)O)CC1)=Nc1cc(C)ccc1O2` [Compound 54], for which the “LUSB (longest uninterrupted sleep bout)” value with male Wistar rats (10 mg/kg oral) came to 11.1 ± 2.9 min.

Consider `Cc1ccc2c(c1)N=C(N1CCN(CC(C)(C)C(=O)O)CC1)c1ccc(C)cc1O2` [Compound 52], for which, in the series on male Wistar rats (10 mg/kg oral), the “LUSB (longest uninterrupted sleep bout)” value amounted to 15.9 ± 2.3 min.
